Results from patent US9247759B2, “Identification of human T2R receptors that respond to bitter compounds that elicit the bitter taste in compositions, and the use thereof in assays to identify compounds that inhibit (block) bitter taste in compositions and use thereof” (SENOMYX, INC., priority 2007, dated 2016).
Like-named read-outs stand apart in the source and are kept apart here.

Target: hT2R8 (Homo sapiens (Human), UniProt Q9NYW2)
Experiment: hT2R8 antagonist high-throughput FLIPR assay, stable cell line with G16g44, agonist andrographolide
Format: cell-based
Source text: After a ligand is identified for a particular hT2R, a HEK293 cell line stably expressing both the hT2R and G16gust44 are generated, facilitating future screening assays to identify other ligands that activate the particular hT2R or which modulate (block or enhance) the activation of this hT2R by another bitter ligand such as a bitter compound contained in coffee. This avoids the need for transient transfection.
(§1) To identify antagonists, cell lines stably expressing hT2R8 and hT2R14, respectively, together with the promiscuous chimeric G16g44 protein were generated as described in previous patent applications. A high-throughput assay was established using the stable cell lines and FLIPR (Fluorescent Imaging Plate Reader). An agonist of hT2R8 or hT2R14 was used to activate the receptors up to 70-80% of their respective maximal activity. For hT2R8, the agonist used was andrographolide (200 λM); for hT2R14, it was aristolochic acid (3 μM). To identify antagonists, compounds with diverse chemical structures were added together with the agonist.
as §1, with “hT2R8” for “hT2R8 and hT2R14, respectively,”, “hT2R8” for “hT2R8 or hT2R14”, “(200” for “(200 λM); for hT2R14, it was aristolochic acid (3”

[1] = read-out: IC50 on hT2R8 bitter receptor
[2] = table after Example 10-97, read-out: hT2R8 IC50
[3] = table after Example 12-37, read-out: hT2R8 IC50
[4] = unit uM, read-out: IC50 on hT2R08 bitter receptor

Sequence of hT2R8 (Q9NYW2 whole entry): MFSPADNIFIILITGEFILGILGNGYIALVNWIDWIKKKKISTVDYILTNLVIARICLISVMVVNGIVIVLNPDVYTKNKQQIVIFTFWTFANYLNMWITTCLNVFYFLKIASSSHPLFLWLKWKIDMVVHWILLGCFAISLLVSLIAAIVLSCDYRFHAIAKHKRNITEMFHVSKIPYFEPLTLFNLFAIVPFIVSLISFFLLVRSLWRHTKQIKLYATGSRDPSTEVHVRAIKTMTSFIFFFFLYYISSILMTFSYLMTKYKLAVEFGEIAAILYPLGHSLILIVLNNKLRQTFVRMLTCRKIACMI

| IC50 [1] [µM] | IC50 [2] [µM] | other results | Compound |
| --- | --- | --- | --- |
| 0.5 | 0.55 | – | Cc1noc(C)c1Cn1cc(N2C(=O)CN(Cc3ccccc3C#N)C2=O)cn1 [Example 10-19, 2-((3-(1-((3,5-dimethylisoxazol-4-yl)methyl)-1H-pyrazol-4-yl)-2,4-dioxoimidazolidin-1-yl)methyl)benzonitrile] |
| 0.41 | 0.409 | – | CCCCn1c(=O)n(-c2cnn(Cc3c(C)noc3C)c2)c(=O)n1Cc1ccccc1 [Example 10-95] |
| – | – | IC50 [3]: 0.58 µM | Cc1noc(C)c1Cn1cc(N2C(=O)N(CCCc3ccccc3)C(C)(C)C2=O)cn1 [Example 12-78, 3-(1-((3,5-dimethylisoxazol-4-yl)methyl)-1H-pyrazol-4-yl)-5,5-dimethyl-1-(3-phenylpropyl)imidazolidine-2,4-dione] |
| 0.02 | – | – | COc1ccc(CN2C(=O)N(c3cnn(Cc4c(C)noc4C)c3)C(=O)C23CC3)cc1OC [Example 12-13, 4-(3,4-dimethoxybenzyl)-6-(1-((3,5-dimethylisoxazol-4-yl)methyl)-1H-pyrazol-4-yl)-4,6-diazaspiro[2.4]heptane-5,7-dione] |
| 0.73 | – | – | Cc1noc(C)c1Cn1cc(NC(=O)CC2CCCCC2)cn1 [Example 4-14, 2-cyclohexyl-N-(1-((3,5-dimethylisoxazol-4-yl)methyl)-1H-pyrazol-4-yl)acetamide] |
| 5.84 | 6.03 | – | Cc1noc(C)c1Cn1cc(N2CNCN(Cc3ccccc3)C2=O)cn1 [Example 9-6, 1-benzyl-3-(1-((3,5-dimethylisoxazol-4-yl)methyl)-1H-pyrazol-4-yl)-1,3,5-triazinan-2-one] |
| – | – | IC50 (Table A, read-out: hT2R8 IC50): 2.81 µM | Cc1noc(C)c1Cn1cc(N(C)C(=O)[C@@H](C)c2ccccc2)cn1 [Example 4-98, (S)-N-(1-((3,5-dimethylisoxazol-4-yl)methyl)-1H-pyrazol-4-yl)-N-methyl-2-phenylpropanamide] |
| 0.7 | – | – | Cc1noc(C)c1Cn1cc(NC(=O)/C=C/c2ccccc2)cn1 [Example 4-15, N-(1-((3,5-dimethylisoxazol-4-yl)methyl)-1H-pyrazol-4-yl)cinnamamide] |
| 0.07 | – | – | Cc1noc(C)c1Cn1cc(N2C(=O)N(Cc3cccc(O)c3)C3(CCCC3)C2=O)cn1 [Example 12-5, 3-(1-((3,5-dimethylisoxazol-4-yl)methyl)-1H-pyrazol-4-yl)-1-(3-hydroxybenzyl)-1,3-diazaspiro[4.4]nonane-2,4-dione] |
| 0.9 | 0.891 | – | Cc1noc(C)c1Cn1cc(N2C(=O)CN(Cc3cccc(CNC(=O)OC(C)(C)C)c3)C2=O)cn1 [Example 10-96, tert-butyl 3-((3-(1-((3,5-dimethylisoxazol-4-yl)methyl)-1H-pyrazol-4-yl)-2,4-dioxoimidazolidin-1-yl)methyl)benzylcarbamate] |
| 0.2 | – | – | Cc1noc(C)c1Cn1cc(NC(=O)c2ccc3c(c2)OCO3)cn1 [Example 4-8, N-(1-((3,5-dimethylisoxazol-4-yl)methyl)-1H-pyrazol-4-yl)benzo[d][1,3]dioxole-5-carboxamide] |
| – | 3.12 | IC50 [4]: 0.07 µM | COc1ccc(CN2CC(=O)N(c3cnn(Cc4c(C)noc4C)c3)C2=O)cc1 [Example 10-29, 3-(1-((3,5-dimethylisoxazol-4-yl)methyl)-1H-pyrazol-4-yl)-1-(4-methoxybenzyl)imidazolidine-2,4-dione] |
| – | – | IC50 (Table A, read-out: hT2R8 IC50): 3.1 µM | COc1ccc(CC(=O)Nc2cnn(Cc3c(C)noc3C)c2)cc1O [Example 4-70, N-(1-((3,5-dimethylisoxazol-4-yl)methyl)-1H-pyrazol-4-yl)-2-(3-hydroxy-4-methoxyphenyl)acetamide] |
| 0.28 | 0.276 | – | Cc1noc(C)c1Cn1cc(N2C(=O)CN(CC3CCCCC3)C2=O)cn1 [Example 10-74, 1-(cyclohexylmethyl)-3-(1-((3,5-dimethylisoxazol-4-yl)methyl)-1H-pyrazol-4-yl)imidazolidine-2,4-dione] |
| – | – | IC50 [3]: 0.46 µM | Cc1noc(C)c1Cn1cc(N2C(=O)N(Cc3cccc(C(=O)O)c3)C(C)(C)C2=O)cn1 [Example 12-73, 3-((3-(1-((3,5-dimethylisoxazol-4-yl)methyl)-1H-pyrazol-4-yl)-5,5-dimethyl-2,4-dioxoimidazolidin-1-yl)methyl)benzoic acid] |
| 0.01 | 0.027 | – | Cc1noc(C)c1Cn1cc(N2C(=O)CN(CCc3ccc(F)cc3)C2=O)cn1 [Example 10-84, 3-(1-((3,5-dimethylisoxazol-4-yl)methyl)-1H-pyrazol-4-yl)-1-(4-fluorophenethyl)imidazolidine-2,4-dione] |

| IC50 [1] [µM] | IC50 [2] [µM] | other results | Compound |
| --- | --- | --- | --- |
| 0.02 | 0.024 | – | COCn1c(=O)n(-c2cnn(Cc3c(C)noc3C)c2)c(=O)n1Cc1ccccc1 [Example 10-89, 1-benzyl-4-(1-((3,5-dimethylisoxazol-4-yl)methyl)-1H-pyrazol-4-yl)-2-(methoxymethyl)-1,2,4-triazolidine-3,5-dione] |
| – | – | IC50 (Table A, read-out: hT2R8 IC50): 0.98 µM | COc1ccc(O)c(C(=O)Nc2cnn(Cc3c(C)noc3C)c2)c1 [Example 4-27, N-(1-((3,5-dimethylisoxazol-4-yl)methyl)-1H-pyrazol-4-yl)-2-hydroxy-5-methoxybenzamide] |
| – | – | IC50 (Table A, read-out: hT2R8 IC50): 1.7 µM | Cc1noc(C)c1Cn1cc(NC(=O)c2cccc3nccnc23)cn1 [Example 4-76, N-(1-((3,5-dimethylisoxazol-4-yl)methyl)-1H-pyrazol-4-yl)quinoxaline-5-carboxamide] |
| – | – | IC50 (Table A, read-out: hT2R8 IC50): 1.3 µM | Cc1noc(C)c1Cn1cc(NC(=O)c2ccc3c(c2)OC(F)(F)O3)cn1 [Example 4-78, N-(1-((3,5-dimethylisoxazol-4-yl)methyl)-1H-pyrazol-4-yl)-2,2-difluorobenzo[d][1,3]dioxole-5-carboxamide] |
| – | 0.053 | IC50 [4]: 0.07 µM | Cc1noc(C)c1Cn1cc(N2C(=O)CN(Cc3ccc4c(c3)OCO4)C2=O)cn1 [Example 10-36, 1-(benzo[d][1,3]dioxol-5-ylmethyl)-3-(1-((3,5-dimethylisoxazol-4-yl)methyl)-1H-pyrazol-4-yl)imidazolidine-2,4-dione] |
| – | – | IC50 (Table A, read-out: hT2R8 IC50): 0.26 µM | COc1ccc(C(=O)Nc2cnn(Cc3c(C)noc3C)c2)cc1 [Example 4-17, N-(1-((3,5-dimethylisoxazol-4-yl)methyl)-1H-pyrazol-4-yl)-4-methoxybenzamide] |
| 0.25 | 0.248 | – | Cc1noc(C)c1Cn1cc(N2C(=O)CN(CCc3ccccc3Cl)C2=O)cn1 [Example 10-81, 1-(2-chlorophenethyl)-3-(1-((3,5-dimethylisoxazol-4-yl)methyl)-1H-pyrazol-4-yl)imidazolidine-2,4-dione] |
| – | – | IC50 (Table A, read-out: hT2R8 IC50): 0.56 µM | COc1ccc(C(=O)Nc2cnn(Cc3c(C)noc3C)c2)cc1OC [Example 4-21, N-(1-((3,5-dimethylisoxazol-4-yl)methyl)-1H-pyrazol-4-yl)-3,4-dimethoxybenzamide] |
| 0.03 | – | – | Cc1noc(C)c1Cn1cc(N2C(=O)C3Cc4cc(O)ccc4CN3C2=O)cn1 (stereo not shown) [Example 13-3, 2-(1-((3,5-dimethylisoxazol-4-yl)methyl)-1H-pyrazol-4-yl)-8-hydroxy-10,10a-dihydroimidazo[1,5-b]isoquinoline-1,3(2H,5H)-dione] |
| – | – | IC50 (Table A, read-out: hT2R8 IC50): 2.2 µM | COc1cc(C(=O)Nc2cnn(Cc3c(C)noc3C)c2)ccc1C [Example 4-74, N-(1-((3,5-dimethylisoxazol-4-yl)methyl)-1H-pyrazol-4-yl)-3-methoxy-4-methylbenzamide] |
| 0.35 | – | – | Cc1noc(C)c1Cn1cc(N2C(=O)N(CCOc3ccccc3)C(C)(C)C2=O)cn1 [Example 12-27, 3-(1-((3,5-dimethylisoxazol-4-yl)methyl)-1H-pyrazol-4-yl)-5,5-dimethyl-1-(2-phenoxyethyl)imidazolidine-2,4-dione] |
| – | – | IC50 [3]: 0.15 µM | Cc1noc(C)c1Cn1cc(N2C(=O)N(CCc3cccc(F)c3)C(C)(C)C2=O)cn1 [Example 12-50, 3-(1-((3,5-dimethylisoxazol-4-yl)methyl)-1H-pyrazol-4-yl)-1-(3-fluorophenethyl)-5,5-dimethylimidazolidine-2,4-dione] |
| 3.03 | 6.15 | – | Cc1noc(C)c1Cn1cc(-n2c(=O)[nH]c(=O)n(CCc3ccccc3)c2=O)cn1 [Example 9-8, 1-(1-((3,5-dimethylisoxazol-4-yl)methyl)-1H-pyrazol-4-yl)-3-phenethyl-1,3,5-triazinane-2,4,6-trione] |
| – | – | IC50 (Table A, read-out: hT2R8 IC50): 0.96 µM | COc1cc(CC(=O)Nc2cnn(Cc3c(C)noc3C)c2)cc(OC)c1 [Example 4-32, 2-(3,5-dimethoxyphenyl)-N-(1-((3,5-dimethylisoxazol-4-yl)methyl)-1H-pyrazol-4-yl)acetamide] |
| – | – | IC50 [3]: 1.22 µM | Cc1ccc(CN2C(=O)N(c3cnn(Cc4c(C)noc4C)c3)C(=O)C2(C)C)cc1C [Example 12-83, 1-(3,4-dimethylbenzyl)-3-(1-((3,5-dimethylisoxazol-4-yl)methyl)-1H-pyrazol-4-yl)-5,5-dimethylimidazolidine-2,4-dione] |
| – | – | IC50 [3]: 0.3 µM | COc1cccc(CN2C(=O)N(c3cnn(Cc4c(C)noc4C)c3)C(=O)C2(C)C)c1OC [Example 12-64, 1-(2,3-dimethoxybenzyl)-3-(1-((3,5-dimethylisoxazol-4-yl)methyl)-1H-pyrazol-4-yl)-5,5-dimethylimidazolidine-2,4-dione] |
